From ChEMBL document CHEMBL1201862, “PubChem BioAssay data set” (2004)
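Protocol summary: plate cells (96-well), add compound at 5 concentrations, incubate 48 h, interpolate endpoints linearly. GI50 marks 50% less growth.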 The source made the active and inactive calls. Cut-off read from the data, not from the text of the source: active = GI50 up to about 1.1 µM and inactive = higher.

How the values were obtained:
Assay in all cases: NCI-60 cell line screen, 48 h
786-0 = tested on: 786-0
A498 = tested on: A498
A549 = tested on: A549
ACHN = tested on: ACHN
BT-549 = tested on: BT-549
CAKI-1 = tested on: CAKI-1
CCRF-CEM = tested on: CCRF-CEM
COLO 205 = tested on: COLO 205
DU-145 = tested on: DU-145
EKVX = tested on: EKVX
HCC 2998 = tested on: HCC 2998
HCT-116 = tested on: HCT-116
HCT-15 = tested on: HCT-15
HL-60 = tested on: HL-60
HOP-62 = tested on: HOP-62
HOP-92 = tested on: HOP-92
HT-29 = tested on: HT-29
Hs-578T = tested on: Hs-578T
IGROV-1 = tested on: IGROV-1
K562 = tested on: K562
KM12 = tested on: KM12
LOX IMVI = tested on: LOX IMVI
M14 = tested on: M14
MCF7 = tested on: MCF7
MDA-MB-231 = tested on: MDA-MB-231
MDA-MB-435 = tested on: MDA-MB-435
MDA-N = tested on: MDA-N
MOLT-4 = tested on: MOLT-4
Malme-3M = tested on: Malme-3M
NCI-H226 = tested on: NCI-H226
NCI-H23 = tested on: NCI-H23
NCI-H460 = tested on: NCI-H460
NCI-H522 = tested on: NCI-H522
NCI/ADR-RES = tested on: NCI/ADR-RES
OVCAR-3 = tested on: OVCAR-3
OVCAR-4 = tested on: OVCAR-4
OVCAR-5 = tested on: OVCAR-5
OVCAR-8 = tested on: OVCAR-8
PC-3 = tested on: PC-3
RPMI-8226 = tested on: RPMI-8226
RXF 393 = tested on: RXF 393
SF-268 = tested on: SF-268
SF-295 = tested on: SF-295
SF-539 = tested on: SF-539
SK-MEL-28 = tested on: SK-MEL-28
SK-MEL-2 = tested on: SK-MEL-2
SK-MEL-5 = tested on: SK-MEL-5
SK-OV-3 = tested on: SK-OV-3
SN12C = tested on: SN12C
SNB-19 = tested on: SNB-19
SNB-75 = tested on: SNB-75
SR = tested on: SR
SW-620 = tested on: SW-620
T47D = tested on: T47D
TK-10 = tested on: TK-10
U-251 = tested on: U-251
UACC-257 = tested on: UACC-257
UACC-62 = tested on: UACC-62
UO-31 = tested on: UO-31

SMILES: CN(CC1(CO)CCC1)c1cc(Cl)nc(N)n1
- GI50 (786-0): > 100 µM (inactive)
- GI50 (A498): > 100 µM (inactive)
- GI50 (A549): > 100 µM (inactive)
- GI50 (ACHN): > 100 µM (inactive)
- GI50 (BT-549): > 100 µM (inactive)
- GI50 (CAKI-1): > 100 µM (inactive)
- GI50 (CCRF-CEM): > 100 µM (inactive)
- GI50 (COLO 205): > 100 µM (inactive)
- GI50 (DU-145): > 100 µM (inactive)
- GI50 (EKVX): 43.3 µM (inactive)
- GI50 (HCC 2998): > 100 µM (inactive)
- GI50 (HCT-116): > 100 µM (inactive)
- GI50 (HCT-15): > 100 µM
- GI50 (HL-60): > 100 µM (inactive)
- GI50 (HOP-62): > 100 µM (inactive)
- GI50 (HOP-92): > 100 µM (inactive)
- GI50 (HT-29): > 100 µM (inactive)
- GI50 (Hs-578T): > 100 µM (inactive)
- GI50 (IGROV-1): > 100 µM (inactive)
- GI50 (K562): > 100 µM (inactive)
- GI50 (KM12): > 100 µM (inactive)
- GI50 (LOX IMVI): > 100 µM (inactive)
- GI50 (M14): > 100 µM (inactive)
- GI50 (MCF7): > 100 µM (inactive)
- GI50 (MDA-MB-231): > 100 µM (inactive)
- GI50 (MDA-MB-435): > 100 µM (inactive)
- GI50 (MDA-N): > 100 µM (inactive)
- GI50 (MOLT-4): > 100 µM (inactive)
- GI50 (Malme-3M): > 100 µM (inactive)
- GI50 (NCI-H226): > 100 µM (inactive)
- GI50 (NCI-H23): > 100 µM (inactive)
- GI50 (NCI-H460): > 100 µM (inactive)
- GI50 (NCI-H522): > 100 µM (inactive)
- GI50 (NCI/ADR-RES): > 100 µM (inactive)
- GI50 (OVCAR-3): > 100 µM (inactive)
- GI50 (OVCAR-4): 58.9 µM (inactive)
- GI50 (OVCAR-5): > 100 µM (inactive)
- GI50 (OVCAR-8): > 100 µM (inactive)
- GI50 (PC-3): > 100 µM (inactive)
- GI50 (RPMI-8226): > 100 µM (inactive)
- GI50 (RXF 393): > 100 µM (inactive)
- GI50 (SF-268): > 100 µM (inactive)
- GI50 (SF-295): > 100 µM (inactive)
- GI50 (SF-539): > 100 µM (inactive)
- GI50 (SK-MEL-28): > 100 µM (inactive)
- GI50 (SK-MEL-2): > 100 µM (inactive)
- GI50 (SK-MEL-5): > 100 µM (inactive)
- GI50 (SK-OV-3): > 100 µM (inactive)
- GI50 (SN12C): > 100 µM (inactive)
- GI50 (SNB-19): > 100 µM (inactive)
- GI50 (SNB-75): 78.5 µM (inactive)
- GI50 (SR): > 100 µM (inactive)
- GI50 (SW-620): > 100 µM (inactive)
- GI50 (T47D): > 100 µM (inactive)
- GI50 (TK-10): > 100 µM (inactive)
- GI50 (U-251): > 100 µM (inactive)
- GI50 (UACC-257): > 100 µM (inactive)
- GI50 (UACC-62): > 100 µM (inactive)
- GI50 (UO-31): > 100 µM (inactive)

SMILES: O=C1/C(=C\c2ccc(Cl)cc2Cl)Sc2scc(-c3cccc([N+](=O)[O-])c3)[n+]21
- GI50 (786-0): 3.39 µM (inactive)
- GI50 (A498): 49 µM (inactive)
- GI50 (A549): 18.1 µM (inactive)
- GI50 (ACHN): 3.33 µM (inactive)
- GI50 (BT-549): 4.45 µM (inactive)
- GI50 (CAKI-1): 3.03 µM (inactive)
- GI50 (CCRF-CEM): 0.291 µM (active)
- GI50 (COLO 205): 0.59 µM (active)
- GI50 (DU-145): 14 µM (inactive)
- GI50 (EKVX): 7.57 µM (inactive)
- GI50 (HCC 2998): 7.64 µM (inactive)
- GI50 (HCT-116): 5.2 µM (inactive)
- GI50 (HCT-15): 1.81 µM
- GI50 (HL-60): 0.49 µM (active)
- GI50 (HOP-62): 16.5 µM (inactive)
- GI50 (HOP-92): 5.89 µM (inactive)
- GI50 (HT-29): 3.28 µM (inactive)
- GI50 (Hs-578T): 24.7 µM (inactive)
- GI50 (IGROV-1): 6.31 µM (inactive)
- GI50 (K562): 3.1 µM (inactive)
- GI50 (KM12): 11.6 µM (inactive)
- GI50 (LOX IMVI): 1.55 µM (inactive)
- GI50 (M14): 6.04 µM (inactive)
- GI50 (MCF7): 3.98 µM (inactive)
- GI50 (MDA-MB-231): 9.14 µM (inactive)
- GI50 (MDA-MB-435): 10 µM (inactive)
- GI50 (MDA-N): 4.28 µM (inactive)
- GI50 (MOLT-4): 1.45 µM (inactive)
- GI50 (Malme-3M): 8.11 µM (inactive)
- GI50 (NCI-H226): 13.5 µM (inactive)
- GI50 (NCI-H23): 12.6 µM (inactive)
- GI50 (NCI-H460): 13.1 µM (inactive)
- GI50 (NCI-H522): 1.43 µM (inactive)
- GI50 (NCI/ADR-RES): 8.75 µM (inactive)
- GI50 (OVCAR-3): 8.13 µM (inactive)
- GI50 (OVCAR-4): 12 µM (inactive)
- GI50 (OVCAR-5): 15.5 µM (inactive)
- GI50 (OVCAR-8): 8.15 µM (inactive)
- GI50 (PC-3): 15.6 µM (inactive)
- GI50 (RPMI-8226): 4.48 µM (inactive)
- GI50 (RXF 393): 6.25 µM (inactive)
- GI50 (SF-268): 9.1 µM (inactive)
- GI50 (SF-295): 24.9 µM (inactive)
- GI50 (SF-539): 1.81 µM (inactive)
- GI50 (SK-MEL-28): 14.6 µM (inactive)
- GI50 (SK-MEL-2): 14.2 µM (inactive)
- GI50 (SK-MEL-5): 2.09 µM (inactive)
- GI50 (SK-OV-3): 41 µM (inactive)
- GI50 (SN12C): 5.33 µM (inactive)
- GI50 (SNB-19): 12.8 µM (inactive)
- GI50 (SNB-75): 19.9 µM (inactive)
- GI50 (SR): 2.58 µM (inactive)
- GI50 (SW-620): 3.62 µM (inactive)
- GI50 (T47D): 12.2 µM (inactive)
- GI50 (TK-10): 4.07 µM (inactive)
- GI50 (U-251): 13.9 µM (inactive)
- GI50 (UACC-257): 5.79 µM (inactive)
- GI50 (UACC-62): 8.65 µM (inactive)
- GI50 (UO-31): 3.47 µM (inactive)
